Data reported in ChEMBL document CHEMBL1133355, “Pyrrolo[3,2,1-ij]quinoline derivatives, a 5-HT2c receptor agonist with selectivity over the 5-HT2a receptor: potential therapeutic applications for epilepsy and obesity” (Bioorg Med Chem Lett, 2000).

What was measured:
[1] = target: T1, 5-hydroxytryptamine receptor 2C (Homo sapiens, UniProt P28335); assay: Functional agonist activity of compound was determined by fluorescence-based assay measuring intracellular calcium mobilization for 5-HT2c receptor cell line
T1 sequence (P28335 whole entry): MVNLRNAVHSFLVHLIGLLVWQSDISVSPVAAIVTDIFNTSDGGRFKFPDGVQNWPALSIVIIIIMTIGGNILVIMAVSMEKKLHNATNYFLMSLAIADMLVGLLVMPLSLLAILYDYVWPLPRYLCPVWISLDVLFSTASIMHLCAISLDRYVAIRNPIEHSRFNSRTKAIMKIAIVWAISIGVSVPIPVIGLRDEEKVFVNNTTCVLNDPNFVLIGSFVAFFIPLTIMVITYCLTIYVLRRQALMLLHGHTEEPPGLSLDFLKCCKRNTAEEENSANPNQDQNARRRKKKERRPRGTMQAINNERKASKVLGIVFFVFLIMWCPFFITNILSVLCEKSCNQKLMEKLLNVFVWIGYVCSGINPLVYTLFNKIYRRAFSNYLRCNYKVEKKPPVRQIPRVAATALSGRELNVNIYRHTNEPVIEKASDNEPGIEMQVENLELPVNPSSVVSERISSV

[2] = target: T1, 5-hydroxytryptamine receptor 2C; assay: In vitro binding affinity towards human 5-hydroxytryptamine 2C receptor expressed in HEK293 cells was determined using [3H]mesulergine as radioligand; format: cell-based
[3] = target: T2, 5-hydroxytryptamine receptor 2A (Homo sapiens, UniProt P28223); assay: In vitro binding affinity towards human 5-hydroxytryptamine 2A receptor expressed in HEK293 cells was determined using [3H]ketanserin as radioligand; format: cell-based
[4] = Binding ratio of compound to 5-HT2a to that of 5-HT2c was determined
[5] = target: T2, 5-hydroxytryptamine receptor 2A; assay: Functional agonist activity of compound was determined by fluorescence-based assay measuring intracellular calcium mobilization for 5-HT2a receptor cell line
[6] = target: T2, 5-hydroxytryptamine receptor 2A; assay: Functional antagonist activity of compound was determined by fluorescence-based assay measuring intracellular calcium mobilization for 5-HT2a receptor cell line

T2 sequence (P28223 whole entry): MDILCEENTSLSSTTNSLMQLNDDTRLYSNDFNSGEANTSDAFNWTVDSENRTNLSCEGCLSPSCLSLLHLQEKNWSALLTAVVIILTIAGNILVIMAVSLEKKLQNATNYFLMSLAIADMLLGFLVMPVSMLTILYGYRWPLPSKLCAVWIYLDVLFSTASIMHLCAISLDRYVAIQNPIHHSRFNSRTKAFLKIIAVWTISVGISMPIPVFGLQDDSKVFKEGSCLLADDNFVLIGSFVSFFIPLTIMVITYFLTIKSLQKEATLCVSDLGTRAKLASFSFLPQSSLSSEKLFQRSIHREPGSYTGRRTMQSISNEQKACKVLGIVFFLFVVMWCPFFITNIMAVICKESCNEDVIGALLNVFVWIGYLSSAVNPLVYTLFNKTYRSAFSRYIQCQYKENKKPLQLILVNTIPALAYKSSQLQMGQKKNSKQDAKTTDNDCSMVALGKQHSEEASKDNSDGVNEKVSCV

Row | Compound | EC50 [1] [nM] | Ki [2] [nM] | Ki [3] [nM] | Ratio [4] | EC50 [5] [nM] | EC50 [6] [nM]
1 | CC1CCc2cc(F)cc3c(CCN)cn1c23 (centres undefined) | 5.7 | 18 | 2340 | 130 | 269 | –
2 | Cc1c(CCN)c2cccc3c2n1CCC3 | 9 | 225 | 676 | 3 | – | –
3 | Cc1c(CCN)c2cc(F)cc3c2n1C(C)CC3 (centres undefined) | 41 | 194 | 954 | 4.9 | – | –
4 | NCCc1cn2c3c(cc(Cl)cc13)SCC2 | 0.23 | 47 | 631 | 13.4 | 348 | –
5 | NCCc1cn2c3c(cccc13)CCC2 | 0.2 | 41 | 794 | 19.4 | 145 | –
6 | CNCCc1cn2c3c(cc(F)cc13)CCC2C (centres undefined) | 180 | 33 | 1460 | 44 | > 10000 | 1100
